The source of these data is publication PMC10202359, “Nicotinamide N-methyltransferase (NNMT) regulates the glucocorticoid signaling pathway during the early phase of adipogenesis” (Scientific Reports, 2023).

The test system of test [1] is Nnmt expression in 3T3-L1 cells. Description: Nnmt mRNA by real-time PCR in 3T3-L1. The test is classed as cell-based, mouse. The conditions noted are these: post-confluent 3T3-L1 treated 48 h with individual DIM components, vs unstimulated cells. Here is the method:
3T3-L1 Mouse Embryonic Fibroblasts were purchased from American Type Culture Collection (ATCC CL-173). The cells were propagated and maintained in Dulbecco’s modified Eagle’s medium (DMEM, Gibco) supplemented with 10% calf serum (FCS) at 37 °C in 5% CO2 atmosphere. Subconfluents cells were expanded and utilized for the subsequent experiments at the passages 3–6. To induce differentiation, 2-day post-confluent 3T3-L1 pre-adipocytes were cultured for 48 h with DIM (DMEM supplemented with 10% fetal bovine serum (FBS), 1.0 µM Dexamethasone (G. Biosciences), […] Insulin (Sigma) and 0.5 mM IBMX (Sigma). Two days after induction the DIM medium was removed and the cells were maintained in DMED supplemented with 10% FBS and […] Insulin, which was replaced every 48 h, until the cells became fully differentiated (8–10 days after induction). C3H10T1/2 cells were purchased from American Type Culture Collection (ATCC, clone 8, CCL-226, were grown and induced to differentiate following the same protocol, with cell cultures < 3 passages. […] Real-time PCRs were performed using SYBR Green PCR Master Mix (Applied Biosystems) with an ABI PRISM 7900HT Sequence Detection System (Applied Biosystems). RT-PCR data were normalized to GAPDH and expressed relative to control (ddCt method).

The target in test [2] is T1, DNMT3a (Homo sapiens, UniProt Q9Y6K1).
T1 construct: purchased Reaction Biology Corporation
T1 sequence (Q9Y6K1 whole entry, looked up, species assumed): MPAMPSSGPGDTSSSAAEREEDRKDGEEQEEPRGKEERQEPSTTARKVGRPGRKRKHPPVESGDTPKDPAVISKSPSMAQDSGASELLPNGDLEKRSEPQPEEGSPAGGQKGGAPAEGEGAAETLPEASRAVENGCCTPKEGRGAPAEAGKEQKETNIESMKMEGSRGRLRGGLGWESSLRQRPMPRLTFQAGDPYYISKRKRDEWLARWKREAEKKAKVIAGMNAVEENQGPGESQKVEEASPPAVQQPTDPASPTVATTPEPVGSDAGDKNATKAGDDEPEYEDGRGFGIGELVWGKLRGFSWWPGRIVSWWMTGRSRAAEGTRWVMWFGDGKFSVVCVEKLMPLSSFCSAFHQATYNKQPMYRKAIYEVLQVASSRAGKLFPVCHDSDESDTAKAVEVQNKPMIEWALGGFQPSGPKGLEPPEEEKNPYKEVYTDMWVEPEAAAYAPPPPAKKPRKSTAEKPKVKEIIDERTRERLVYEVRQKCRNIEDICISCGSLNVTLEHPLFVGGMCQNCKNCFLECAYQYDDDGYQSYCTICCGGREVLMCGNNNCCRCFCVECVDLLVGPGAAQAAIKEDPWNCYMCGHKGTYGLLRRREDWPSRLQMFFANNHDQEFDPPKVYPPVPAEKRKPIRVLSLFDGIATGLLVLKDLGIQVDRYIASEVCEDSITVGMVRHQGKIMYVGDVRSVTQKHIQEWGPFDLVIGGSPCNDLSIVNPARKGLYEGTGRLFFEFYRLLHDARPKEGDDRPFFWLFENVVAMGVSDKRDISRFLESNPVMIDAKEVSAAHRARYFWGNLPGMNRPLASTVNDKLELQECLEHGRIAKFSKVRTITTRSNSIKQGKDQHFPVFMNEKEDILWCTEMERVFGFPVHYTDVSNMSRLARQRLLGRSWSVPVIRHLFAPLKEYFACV
Description: Methyltransferase Hot Spot radioisotope assay, DNMT3a. The test is classed as biochemical. Here is the method: (§1) CC-410 was screened in biochemical assays for activity against a panel of 11 methyltransferases (MT) by using the radioisotope (3H-AdoMet) based MT Hot Spot Assay. All the assays were performed by Reaction Biology Corporation (RBC, Malven, PA, USA). Briefly CC-410 was incubated with the selected MTs, corresponding substrates, and radiolabeled SAM (S-Adenosyl-L-[methyl-3 H]methionine). The specific MTs assessed, and the corresponding substrates are as follows: DNMT1- Poly dl-dC, DNMT3a- Lambda DNA, DNMT3b- Lambda DNA, DOT1L- Nucleosomes, EZH2 Complex- Core Histone, METTL21A- HSPA8-[CTD], NRMT1- RCC1, PRMT3- Histone H4, PRMT5/MEP50- Histone H2A, SET1b -Core Histone Complex and SMYD2- Nucleosomes. Reaction mixtures were incubated and spotted onto filter papers, which were then washed to remove unreacted SAM, leaving the bound radiolabeled product. Detection of the radiolabeled, methylated product was performed via a nanoliter-scale radioisotope filter binding platform. […] For each assay, control compounds were included as positive controls for enzyme function and assay reproducibility. […] IC50 was calculated by non-linear least square fitting dose–response curve.

The target of test [3] is T2, DNMT3b (Homo sapiens, UniProt Q9UBC3).
T2 construct: purchased Reaction Biology Corporation
Briefly: Methyltransferase Hot Spot radioisotope assay, DNMT3b. It counts as biochemical. On the procedure: as §1

For test [4], the target named is PRMT3 (Homo sapiens, UniProt O60678). Briefly: Methyltransferase Hot Spot radioisotope assay, PRMT3. It counts as biochemical. The note with it: 10-dose, threefold dilution; CC-410 from 300 μM, control from 100 μM; substrate Histone H4; read-out: IC50* (M) PRMT3. On the procedure:
as §1, with “The specific MTs assessed, and the corresponding substrates are as follows: DNMT1- Poly dl-dC, DNMT3a- Lambda DNA, DNMT3b- Lambda DNA, DOT1L- Nucleosomes, EZH2 Complex- Core Histone, METTL21A- HSPA8-[CTD], NRMT1- RCC1, PRMT3- Histone H4, PRMT5/MEP50- Histone H2A, SET1b -Core Histone Complex and SMYD2- Nucleosomes.” left out

In test [5] the target is T3, NRMT1 (Homo sapiens, UniProt Q9BV86).
T3 sequence (Q9BV86 1-223): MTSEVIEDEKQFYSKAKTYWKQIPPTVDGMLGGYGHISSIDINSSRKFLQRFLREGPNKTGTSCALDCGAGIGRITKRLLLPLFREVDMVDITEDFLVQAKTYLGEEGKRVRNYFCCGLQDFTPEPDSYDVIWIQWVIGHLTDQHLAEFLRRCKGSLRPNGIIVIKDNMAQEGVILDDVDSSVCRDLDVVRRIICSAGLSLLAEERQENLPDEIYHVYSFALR
Briefly: Methyltransferase Hot Spot radioisotope assay, NRMT1. The test is classed as biochemical. The note with it: 10-dose, threefold dilution; CC-410 from 300 μM, control from 100 μM; substrate RCC1. Here is the method:
as §1

The target of test [6] is T4, SET1b Complex (Homo sapiens, UniProt Q9UPS6).
T4 construct: purchased Reaction Biology Corporation
Briefly: Methyltransferase Hot Spot radioisotope assay, SET1b Complex. The test is classed as biochemical. The note with it: 10-dose, threefold dilution; CC-410 from 300 μM, control from 100 μM; substrate Core Histone; read-out: IC50* (M) SET1b Complex. On the procedure:
as §1

Test [7] has as its target METTL21A (Homo sapiens, UniProt Q8WXB1). Briefly: Methyltransferase Hot Spot radioisotope assay, METTL21A. It counts as biochemical. The note with it: 10-dose, threefold dilution; CC-410 from 300 μM, control from 100 μM; substrate HSPA8-[CTD]. On the procedure:
as §1, with “The specific MTs assessed, and the corresponding substrates are as follows: DNMT1- Poly dl-dC, DNMT3a- Lambda DNA, DNMT3b- Lambda DNA, DOT1L- Nucleosomes, EZH2 Complex- Core Histone, METTL21A- HSPA8-[CTD], NRMT1- RCC1, PRMT3- Histone H4, PRMT5/MEP50- Histone H2A, SET1b -Core Histone Complex and SMYD2- Nucleosomes.” left out

Sequence of PRMT3 (O60678 whole entry, species assumed): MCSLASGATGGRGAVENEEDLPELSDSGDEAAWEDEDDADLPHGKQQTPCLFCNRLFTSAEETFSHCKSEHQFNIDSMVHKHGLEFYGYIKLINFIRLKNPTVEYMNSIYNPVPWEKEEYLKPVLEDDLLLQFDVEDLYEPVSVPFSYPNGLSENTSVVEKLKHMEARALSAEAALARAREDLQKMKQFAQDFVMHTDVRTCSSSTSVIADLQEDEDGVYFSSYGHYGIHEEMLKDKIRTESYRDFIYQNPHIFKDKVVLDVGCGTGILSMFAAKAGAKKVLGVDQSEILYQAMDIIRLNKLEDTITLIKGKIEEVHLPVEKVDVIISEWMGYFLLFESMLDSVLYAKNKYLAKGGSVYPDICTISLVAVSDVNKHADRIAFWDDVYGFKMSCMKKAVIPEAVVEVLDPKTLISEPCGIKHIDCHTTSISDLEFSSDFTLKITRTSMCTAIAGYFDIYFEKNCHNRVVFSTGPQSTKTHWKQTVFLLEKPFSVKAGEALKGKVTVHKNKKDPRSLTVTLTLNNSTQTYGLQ
Sequence of METTL21A (Q8WXB1 whole entry, species assumed): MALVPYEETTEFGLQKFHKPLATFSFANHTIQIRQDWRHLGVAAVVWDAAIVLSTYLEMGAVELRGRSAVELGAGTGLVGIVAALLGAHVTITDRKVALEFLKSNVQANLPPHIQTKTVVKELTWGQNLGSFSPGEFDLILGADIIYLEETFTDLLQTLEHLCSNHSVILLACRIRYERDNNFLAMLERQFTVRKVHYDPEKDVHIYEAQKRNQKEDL

As for `C[C@@H]1C[C@H]2[C@@H]3CCC4=CC(=O)C=C[C@]4(C)[C@@]3(F)[C@@H](O)C[C@]2(C)[C@@]1(O)C(=O)CO` [DEX, dexamethasone], the “Nnmt expression (mRNA, RT-PCR)” value in test [1] was “induction comparable with that of the whole cocktail”.

With `CC(C)Cn1c(=O)n(C)c(=O)c2[nH]cnc21` [IBMX, 3-isobutyl-1-methylxanthine], the “Nnmt expression (mRNA, RT-PCR)” value in test [1] is given as “neither insulin nor IBMX impacted Nnmt expression significantly”.

In the case of `Nc1ncnc2c1ncn2[C@@H]1O[C@H](CSCC[C@H](N)C(=O)O)[C@@H](O)[C@H]1O` [SAH, S-(5′-Adenosyl)-L-homocysteine, reference compound], the 50% inhibitory concentration (IC50) (usually the concentration that inhibits the measured activity by half) in test [2] was determined as 511 nM; in test [3], 259 nM; in test [4], 3.88e-06 M; in test [5], 1680 nM; in test [6] it was 2e-05 M; in test [7], 76100 nM.

As to “insulin: component of the differentiation-inducing medium (DIM)”, the “Nnmt expression (mRNA, RT-PCR)” value in test [1] is on record as “neither insulin nor IBMX impacted Nnmt expression significantly”.
